US20200316090A1, “TARGETED THERAPEUTICS” (MADRIGAL PHARMACEUTICALS, INC., priority 2012, published 2020)

How the values were obtained:
[1] = Mouse plasma stability (Examples 16-18); format: in vitro ADME; conditions: for Mouse (5 μM) % Remaining 1 h (37° C.) * / Mouse (10 μM) % Remaining 1 h (37° C.) *: sum of both peaks of parent chromatogram; for Mouse (5 μM) % Remaining 1 h (37° C.) §: data from single parent peak
Procedure: This solution was used to precipitate all plasma samples in the study. 200 μL was pipetted into a 96 deepwell plate over dry ice. 10 μL of 1 mM stock in DMSO was added to a 1.5 mL microfuge tube, then 990 μL of plasma. Samples were mixed by vortex, then 50 μL of each sample was added in triplicate to a 96-well plate containing internal standard solution. This was designated the 0 hour time point sample. 250 μL of the remaining plasma sample was added to each of four 96 deepwell plates—one per time point. Samples were incubated at 37° C. with gentle shaking for 0.25, 0.5, and 1 hour. After each time point, one plate of each sample was removed from the shaker and placed on wet ice for approximately 2 minutes. 50 μL plasma aliquots (in triplicate) were added to the deepwell plate containing internal standard solution. After the last time point was extracted, the 96 deepwell plate was vortexed, then centrifuged at 2-8° C. 150 μL of supernatant was collected and 25 μL of water was added. Samples were mixed and analyzed by LC-MS/MS.
The stability of seven SDC-TRAP types in mouse plasma was measured as follows. 990 μL mouse plasma aliquots from a common stock were spiked with 10 μL of 1 mM stock of one of seven SDC-TRAP samples identified in the table below. Each sample was mixed and divided into 250 μL aliquots, each representing time points 0, 15 minutes, 30 minutes or 1 hour. At the prescribed time point, 3×50 μL samples were each mixed with 200 μL of methanol containing internal standard and held on dry ice until all time point samples were extracted. The samples collectively were vortex mixed for 1.5 minutes at 1500 rpm, then centrifuged at 4400 rpm for 10 minutes at 8° C.

[2] = Artificial membrane permeability assay (PAMPA)

| SMILES | Mouse (5 μM) % Remaining 1 h (37° C.) * ([1]; 1 h) [%] | Mouse (5 μM) % Remaining 19 h (37° C.) [1] [%] | Mouse (10 μM) % Remaining 1 h (37° C.) * ([1]; 1 h) [%] | Mouse (5 μM) % Remaining 1 h (37° C.) § ([1]; 1 h) [%] | % Remaining (l h) ([1]; mouse, plasma, 1 h, 10 µM) [%] | Papp at 5 h [2] [×10⁻⁶ cm/s] | Mass Retention (%) ([2]; same protocol, second table) | Permeability (10^−6 cm/s) ([2]; same protocol, second table) |
| --- | --- | --- | --- | --- | --- | --- | --- | --- |
| CCc1c2c(nc3ccc(OC(=O)N(C)CCCCN4CCN(Cc5ccc(-n6c(O)nnc6-c6cc(C(C)C)c(O)cc6O)cc5)CC4)cc13)-c1cc3c(c(=O)n1C2)COC(=O)C3(O)CC (stereo not drawn) [SDC-TRAP-0044, 4,11-diethyl-4-hydroxy-3,14-dioxo-3,4,12,14-tetrahydro-1H-pyrano[3 ‘,4’:6,7]indolizino[1,2-b]quinolin-9-yl (4-(4-(4-(3-(2,4-dihydroxy-5-isopropylphenyl)-5-hydroxy-4H-1,2,4-triazol-4-yl)benzyl)piperazin-1-yl)butyl)(methyl)carbamate] | 50 | 41 | 61 |  |  |  |  |  |
| CCc1c2c(nc3ccc(OC(=O)N4CCN(c5ccc(-n6c(O)nnc6-c6cc(C(C)C)c(O)cc6O)cc5)CC4)cc13)-c1cc3c(c(=O)n1C2)COC(=O)C3(O)CC (stereo not drawn) [SDC-TRAP-0045, 4,11-diethyl-4-hydroxy-3,14-dioxo-3,4,12,14-tetrahydro-1H-pyrano[3′,4′:6,7]indolizino[1,2-b]quinolin-9-yl 4-(4-(3-(2,4-dihydroxy-5-isopropylphenyl)-5-hydroxy-4H-1,2,4-triazol-4-yl)phenyl)piperazine-1-carboxylate] | 77 | 50 | 45 | 72 |  |  |  |  |
| CC(C)c1cc(-c2nnc(O)n2-c2ccc(CN3CCN(C(=O)c4ccc(CCc5c[nH]c6nc(N)[nH]c(=O)c56)cc4)CC3)cc2)c(O)cc1O [SDC-TRAP-0068, 2-amino-5-(4-(4-(4-(3-(2,4-dihydroxy-5-isopropylphenyl)-5-hydroxy-4H-1,2,4-triazol-4-yl)benzyl)piperazine-1-carbonyl)phenethyl)-3H-pyrrolo[2,3-d]pyrimidin-4(7H)-one] |  |  |  |  | 96.5 |  |  |  |
| CCc1c2c(nc3ccc(O)cc13)-c1cc3c(c(=O)n1C2)COC(=O)C3(CC)OC(=O)N(C)CCOCCn1ccc2cc(-n3c(O)nnc3-c3cc(C(C)C)c(O)cc3O)ccc21 (stereo not drawn) [SDC-TRAP-0037, 4,11-diethyl-9-hydroxy-3,14-dioxo-3,4,12,14-tetrahydro-1H-pyrano[3′,4′:6,7]indolizino[1,2-b]quinolin-4-yl (2-(2-(5-(3-(2,4-dihydroxy-5-isopropylphenyl)-5-hydroxy-4H-1,2,4-triazol-4-yl)-1H-indol-1-yl)ethoxy)ethyl) (methyl)carbamate] | 67 | 6 | 95 |  |  |  |  |  |
| CCc1c2c(nc3ccc(OC(=O)N(C)CCOCCn4ccc5cc(-n6c(O)nnc6-c6cc(C(C)C)c(O)cc6O)ccc54)cc13)-c1cc3c(c(=O)n1C2)COC(=O)C3(O)CC (stereo not drawn) [SDC-TRAP-0029, 4,11-diethyl-4-hydroxy-3,14-dioxo-3,4,12,14-tetrahydro-1H-pyrano[3′,4′:6,7]indolizino[1,2-b]quinolin-9-yl(2-(2-(5-(3-(2,4-dihydroxy-5-isopropylphenyl)-5-hydroxy-4H-1,2,4-triazol-4-yl)-1H-indol-1-yl)ethoxy)ethyl)(methyl)carbamate] | 46 | 29 | 47 | 43 |  | 0.00646 | 84.0 | 0.00646 10^−6 cm/s |
